Results reported in patent US10772944B2, “Bacterial ghosts for the treatment of cancer” (BIRD-C GMBH, priority 2016, dated 2020).

Test system: CT26 mouse colorectal carcinoma
Conditions: one cycle: BGs 4x10^8 at D4, oxaliplatin 6 mg/kg i.p. at D4, D6; harvest D18
Protocol: Treatment of mice started three days after tumor inoculation and comprised of either one or two cycles of BGs administration combined with either two or four drug administrations, respectively. Furthermore, part of mice was treated with either two or four drug administrations without the extra addition of BGs. Survival and animal behavior were monitored until the section day; animal weights were documented once per week. Tumor presence and burden were assessed at the section day including organ screening and photo documentation.
The mice were inoculated intraperitoneally (in lower left quadrant) with 1×10^5 cells of CT26 mouse colorectal carcinoma cells and randomly distributed into the seven groups (D1).
Three days after tumor inoculation (D4) the first group of animals (Group #1) received 100 μl of 5% glucose solution for injection (solvent) administered intraperitoneally at the same place as used for tumor inoculation.
Mice from Group #2.1 were injected intraperitoneally at D4 and D6 (five days after tumor inoculation) with 6 mg/kg oxaliplatin reconstituted in 100 μl of 5% glucose solution for injection at the same place as used for tumor inoculation. […]

O=C1[O][Pt]2([NH][C@@H]3CCCC[C@H]3[NH]2)[O]C1=O [oxaliplatin]
tumor burden (weight of collected tumor tissues) versus control: tumor mass reduction detected
